What was measured:
liver = experiment: Liver function tests on blood samples; format: in vivo, mice; conditions: after ten days of treatment
Procedure: Four groups of six male F1 hybrid mice (C57BL/6X DBA/2) 6-8 weeks old (20-25g body weight) were used for the study. […] Three additional mice were used as normal untreated controls.
In Examples VIII and IX, 8 mg/kg doses were administered intravenously.
The total number of nucleated cells, that is, the total number of total white blood cells, was counted with a Coulter counter and a blood film was prepared simultaneously for lymphocyte-to-neutrophil (L/N) ratio.
Liver function tests were performed on blood samples after ten days of treatment with the solutions (see Example III). Four doses were administered each day.

Colon 38 tumors = experiment: Antitumor tests, in vitro; format: cell-based, murine; conditions: Colon 38, in vitro, 21 days
Procedure: Lewis lung murine tumors of the biological type lung carcinoma were implanted subcutaneously in the group B C57BL/6 mice. Colon 38 of the histological type colon carcinoma was implanted in group C57BL/6. Three mice from group A were implanted with Lewis lung tumors and the remaining three were implanted with colon 38 tumors subcutaneously. Three mice from control group D were implanted with Lewis lung tumors and three with colon 38 tumors.
The antitumor activity of both solutions was tested in vitro. Colon 38 tumors were used for in vitro screening of the antitumor effect. Tumors were place in 10ml solution of each of the agents. The tumors were removed after 21 days of culture growth and examined for weight loss and shrinkage in size.

lung = experiment: Biodistribution by gamma camera with technicium Tc-99 m; format: in vivo, mice; conditions: Tc-99 m given 30 min after injection
Procedure: Four groups of six male F1 hybrid mice (C57BL/6X DBA/2) 6-8 weeks old (20-25g body weight) were used for the study. Group A received unconjugated cis-Platinum; the second group, B, received cis-Platinum conjugated with the organ-specific vectoring reagent macroaggregated albumin (MAA). Group C received cis-Platinum conjugated with colloidal sulfur particles. Group D was injected with MAA alone, with no cis-Platinum conjugated or unconjugated, and served as controls. Three additional mice were used as normal untreated controls.
(§1) All experimental animals were injected intravenously (IV) with 0.5 mg doses of cis-Platinum to a final concentration of […] body weight, maximum volume 0.2 mL/mouse. The above protocol was used in Examples II-VI. In Examples VIII and IX, 8 mg/kg doses were administered intravenously.
Thirty minutes after injecting the mice with either agent, one millicurie of technicium Tc-99 m was injected IV and the mice placed under a gamma camera to trace the cis-Platinum.
Similar patterns of activity were seen when both groups of mice were injected after three days.

L1210 leukemia cells = experiment: Effect on in vivo tumor cells (L1210 leukemia); design: species or system DBA mice; conditions: 8 mg/kg iv
Procedure: as §1
10^4 L1210 leukemia cells were transplanted intravenously (iv) into DBA mice. Three days later the animals received 8 mg/kg cis-Platinum in saline or 8 mg/kg cisplatinum-conjugate administered (iv) (3 animals/group)

K1210 leukemia cells = experiment: Effect on mice implanted with leukemia cells; format: in vivo, DBF mice; conditions: 8 mg/kg i.v.
Procedure: as §1
DBF mice were planted intraperitoneally with 10^4 K1210 leukemia cells. Three days later, 8 mg/kg of cis-Platinum in saline and cis-Platinum conjugate preparation was given intravenously via a tail vein.

bones = experiment: Progesterone delivery to bones (APAAP staining); format: in vivo, mice
Procedure: Thirty-nine mg of finely divided progesterone were added to 2.4 ml of linking agent containing Composition C and injected into mice (see Example XII). The drug was examined for its presence in bones after 2days by taking sections of bone from ribs and staining the sections with monoclonal antibodies to progesterone using the […] labeling system as described by Cordell et al. in J. Histochem. Cytochem. 32:219 (1984).

[1] = Drug release in vitro by column elution method; format: physicochemical; conditions: after 14 hrs, 37° C, saline 0.4 ml/min
Procedure: Using the conjugate prepared in Example XXVI, the drug release was estimated in vitro by the column elution method described below.
2.0 ml of deionized water was added to 11.6 mg of dry (lyophilized) conjugate as prepared in Example XXVI. The slurry was pipetted into 140 ×7 mm glass columns. The ends of each of the columns were filled with chromatographic caps packed with glass wool. The ends were then attached to threaded zero-volume collectors and connected to 10 mm 1:0 teflon tubing. The columns were placed in a circulating water bath at 37 ° C. Saline was pumped through columns at 0.4 ml/min flow rate with an HPLC pump (ALTEX 110A). Fractions were collected as a function of time at 4° C. and analyzed by uv/vis spectroscopy method. Results: Approximately 20% drug release was found in samples taken after 14 hrs.

Row | Compound | Prothrombin clotting time (liver) | SGOT (liver) | SGPT (liver) | Serum bilirubin (liver) | Shrinkage (Colon 38 tumors) [%] | Weight loss (Colon 38 tumors) [%] | distribution of the radioisotope in organs in the abdomen (lung) | Incr. Life Span (ILS) (L1210 leukemia cells) [%] | % ILS (K1210 leukemia cells) [%] | delivery to the bones (bones; after 2 days, sections of rib bone) | retention in bones as an active molecule (bones; mouse, in vivo) | drug release [1]
1 | N.N.[Cl-].[Cl-].[Pt+2] [cis-Pt, cis-Platinum (II) Diammine Dichloride] | 16 | 120 | 112 | 3.8 | 41 | 63 | even distribution of the radioisotope in all organs in the abdomen | 111 | 80 | – | – | –
2 | progesterone | – | – | – | – | – | – | – | – | – | effectively delivered to the bones | up to 21 days | Approximately 20%
